Entries after “also recorded” stand apart in the source; their conditions may differ. Like-named read-outs stand apart in the source and are kept apart here. Blank lines part the entries; values can stand above or below the molecule they belong to.
Legend:
[1] = biological target: T. cruzi cathepsin L-like protease (cruzain) (Trypanosoma cruzi, UniProt P25779); assay: biochemical
Protocol: (§1) IC50 Determinations. Inhibitors were screened for effectiveness against the T. cruzi cathepsin L-like protease (cruzain) using purified recombinant protein. Cruzain (1 nM) was incubated with 20-50000 nM inhibitor in 100 mM sodium acetate-5 mM DTT buffer (pH 5.50, buffer A) for 5 min at room temperature. […] The increase in fluorescence (excitation at 355 nm and emission at 460 nm) was followed with an automated microtiter plate spectrofluorimeter (Molecular Devices, spectraMAX Gemini). Inhibitor stock solutions were prepared at 20 mM in DMSO, and serial dilutions were made in DMSO (0.7% DMSO in assay). Controls were performed using enzyme alone and enzyme with DMSO. IC50 values were determined graphically using inhibitor concentrations in the linear portion of a plot of inhibition versus log [I] (seven concentrations were tested, and at least two were in the linear range).

[2] = Solubility observations (cell culture medium, methanol); type: physicochemical
J774 macrophages = assay: Toxicity to mammalian host cells in the cell culture assay; type: cell-based
Protocol: (§2) Drug Screening in Cell Culture. Mammalian cells are routinely cultured in RPMI-1640 medium supplemented with 5-10% heat-inactivated fetal calf serum (FCS) at 37° C. in 5% CO2. The Y strain of T. cruzi is maintained by serial passage in bovine embryo skeletal muscle (BESM) cells. Infectious trypomastigotes are collected from culture supernatants. For drug assays, J774 macrophages were irradiated (5000 rad) and plated onto six-well tissue culture plates 24 h prior to infection with ˜106 trypomastigotes/well. Parasites are removed 2 h postinfection, and the medium is supplemented with the appropriate cysteine protease inhibitor (10 μM). Inhibitor stocks (10 mM) in DMSO were stored at 4° C. J774 monolayers treated with a blank containing DMSO are used as a negative control, and monolayers treated with a known trypanocidal inhibitor, 10 μM N-methyl piperazine-Phe-homoPhe-vinyl sulfone phenyl (N-Pip-F-hF-VSPh) acted as a positive control (Engel et al., J. Exp. Med., 188:725-734 (1998)). RPMI medium with or without inhibitor is replaced every 48 h. Cultures are maintained for up to 30 days and monitored daily by contrast phase microscopy. […] The comparative effectiveness of each inhibitor was estimated from plots of the duration of the intracellular cycle of T. cruzi (days) in treated vs untreated control wells.
The toxicity of compounds to mammalian host cells was also evaluated in the assay.

T. cruzi (Y strain) = assay: Anti-trypanosomal cell culture assay, T. cruzi-infected J774 macrophages; type: cell-based; details: for effect on T. cruzi in cell culture (trypanocidal / trypanostatic / inactive): inhibitor 10 μM, cultures up to 30 days
Protocol: as §2, with “Parasites are removed 2 h postinfection, and the medium is supplemented with the appropriate cysteine protease inhibitor (10 μM).” left out

cruzain = cruzain (Trypanosoma cruzi, UniProt P25779); type: biochemical; details: incubation 90 s to 24 h
cruzain, sequence (P25779 123-467): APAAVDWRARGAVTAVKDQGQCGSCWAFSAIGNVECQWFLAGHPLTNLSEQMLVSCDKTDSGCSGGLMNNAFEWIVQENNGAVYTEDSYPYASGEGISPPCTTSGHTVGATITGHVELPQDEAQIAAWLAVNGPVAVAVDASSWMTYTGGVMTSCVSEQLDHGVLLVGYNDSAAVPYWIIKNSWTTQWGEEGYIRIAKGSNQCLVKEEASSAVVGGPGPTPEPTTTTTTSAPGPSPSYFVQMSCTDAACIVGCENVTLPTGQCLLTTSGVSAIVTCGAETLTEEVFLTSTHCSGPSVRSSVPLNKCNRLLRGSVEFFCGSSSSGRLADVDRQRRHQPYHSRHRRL
Protocol: The time dependence of inhibition was determined by incubating cruzain with inhibitors, DMSO, or enzyme alone at room temperature for time points between 90 s and 24 h. The enzymatic activity was determined as above.
A known irreversible inhibitor, K002 (morpholino urea-Phe-homoPhe-vinyl sulfone benzene; Axys Pharmaceuticals Inc., South San Francisco, Calif.), and a known reversible covalent inhibitor, leupeptin, were used as controls for the thio semicarbazones.

T. cruzi parasites = assay: WHO screen against T. cruzi parasites; type: cell-based
Excerpt: (§3) Thio semicarbazones have been tested against falcipain 2, which is the cysteine protease of parasites related to malaria. […] The WHO (World Health Organization) helped to screen compound 1i against a couple of parasite strains. It has activity against T. cruzi and P. falciparum parasites.

parasite P. falciparum = assay: WHO screen against P. falciparum parasites; type: cell-based
Excerpt: as §3

falcipain-2 = biological target: T1, falcipain-2 (Plasmodium falciparum, UniProt Q8I6U4); assay: Inhibition of falcipain-2; type: biochemical
T1 sequence (Q8I6U4 244-484): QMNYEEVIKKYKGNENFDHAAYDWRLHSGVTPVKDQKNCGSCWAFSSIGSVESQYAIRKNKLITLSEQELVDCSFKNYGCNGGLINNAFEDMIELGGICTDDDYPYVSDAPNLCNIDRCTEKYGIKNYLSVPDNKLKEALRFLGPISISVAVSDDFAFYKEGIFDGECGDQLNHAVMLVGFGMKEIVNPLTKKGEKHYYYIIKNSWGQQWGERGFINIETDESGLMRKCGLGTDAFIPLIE
Excerpt: as §3

human cathepsin B = human cathepsin B (Homo sapiens, UniProt P07858); assay: Inhibition of cathepsin B protease activity; type: biochemical
Protocol: as §1, with “protein.” for “protein. Cruzain (1 nM) was incubated with 20-50000 nM inhibitor in 100 mM sodium acetate-5 mM DTT buffer (pH 5.50, buffer A) for 5 min at room temperature.”
Enzyme assays to test the ability of thio semicarbazone compounds to inhibit the cysteine protease activity of rhodesain and cathepsin B were carried out as described for assays to test inhibition of protease activity by cruzain. In these assays, inhibition of cruzain is included as a positive control.

T. cruzi [3] = details: mouse model; cited from earlier work
T. cruzi [4] = details: cited from earlier work
[5] = 5 min incubation, room temperature, pH 5.50, read-out: IC50 against cruzain

T. cruzi cathepsin L-like protease (cruzain), sequence (P25779 123-467): as the sequence (P25779 123-467) above

Molecule: NC(=S)NN=Cc1ccc(-c2ccc(Cl)cc2)o1 [Compound 1b, 5-(4-Chlorophenyl)-2-furancarboxaldehyde Thio Semicarbazone]
IC50 [1, 5]: < 300 nM | solubility in the cell culture medium, in words [2]: solubility (1b) appears to be a problem

Molecule: COc1ccccc1-c1ccc(C=NNC(N)=S)o1 [Compound 1c, 5-(2-Methoxyphenyl)-2-furancarboxaldehyde Thio Semicarbazone]
IC50 [1]: < 300 nM | melting point: 209.5 to 211.1 °C | toxicity to host cells, in words (J774 macrophages): Toxicity

Molecule: NC(=S)NN=Cc1ccc(-c2cccc(Cl)c2)o1 [Compound 1e, 5-(3-Chlorophenyl)-2-furancarboxaldehyde Thio Semicarbazone]
IC50 [1, 5]: < 300 nM | melting point: 198.8 to 199.8 °C | survival of infected host cells (T. cruzi (Y strain); compound at 5 μM, untreated infected cells die within 5 days): 10 days | effect on T. cruzi in cell culture (trypanocidal / trypanostatic / inactive) (T. cruzi (Y strain)): trypanostatic | concentration at which toxicity to host cells was observed (J774 macrophages): 10 µM

Molecule: NC(=S)NN=Cc1ccc(-c2ccc(Br)cc2)o1 [Compound 1f, 5-(4-Bromophenyl)-2-furancarboxaldehyde Thio Semicarbazone]
IC50 [1, 5]: < 300 nM | survival of infected host cells / duration of trypanostatic effect (T. cruzi (Y strain); inhibitor 10 μM (method), untreated infected cells die within 5 days): 14 days | effect on T. cruzi in cell culture (trypanocidal / trypanostatic / inactive) (T. cruzi (Y strain)): trypanostatic | solubility in the cell culture medium, in words [2]: crystallized in the cell culture medium

Molecule: CCC(=NNC(N)=S)c1cccc(Br)c1 [Compound 1i, 3′-Bromopropiophenone Thio Semicarbazone]
time dependence of cruzain inhibition (cruzain): time-dependent | activity against T. cruzi parasites (T. cruzi parasites): has activity | effect on T. cruzi in cell culture (trypanocidal / trypanostatic / inactive) (T. cruzi (Y strain)): significant trypanocidal activity; also recorded: cured of trypanosomal infection; also recorded: trypanocidal effect | time postinfection that cells stayed healthy and parasite-free (T. cruzi (Y strain); treated for three weeks, then compound removed, experiment terminated): ≥ 6.5 weeks | toxicity to host cells, in words (J774 macrophages): without toxicity to host cells | solubility in the cell culture medium, in words [2]: without toxicity to host cells or solubility problems | IC50 (parasite P. falciparum; Plasmodium falciparum): 16000 to 32000 nM | activity against P. falciparum parasites (parasite P. falciparum; WHO screen): has activity

Molecule: COc1ccc2ccccc2c1C=NNC(N)=S [Compound 1n, 2-Methoxy-1-naphthaldehyde Thio Semicarbazone]
IC50 [1, 5]: 560 nM | toxicity to host cells, in words (J774 macrophages): Toxicity

Molecule: CC(=NNC(N)=S)c1cccc(Br)c1 [Compound 3b, 3′-Bromoacetophenone Thio Semicarbazone]
time dependence of cruzain inhibition (cruzain): time-dependent | IC50 [1, 5]: 200 nM | effect on T. cruzi in cell culture (trypanocidal / trypanostatic / inactive) (T. cruzi (Y strain)): trypanocidal effect

Molecule: O=C(N[C@H](/C=C/S(=O)(=O)c1ccccc1)CCc1ccccc1)[C@H](Cc1ccccc1)NC(=O)N1CCOCC1 [Compound K002, morpholino urea-Phe-homoPhe-vinyl sulfone benzene]
time dependence of cruzain inhibition (cruzain): rapidly time-dependent | IC50 (human cathepsin B; read-out: cathepsin B IC50 (μM) 5 min preincubation, 5 min preincubation): 0.5 µM | IC50 (human cathepsin B; read-out: cathepsin B IC50 (μM) 30 min preincubation, 30 min preincubation): < 0.1 µM

Molecule: CN1CCN(C(=O)NC(Cc2ccccc2)C(=O)NC(C=CS(=O)(=O)c2ccccc2)CCc2ccccc2)CC1 (stereo not drawn) [N-Pip-F-hF-VSPh, N-methyl piperazine-Phe-homoPhe-vinyl sulfone phenyl, reference compound]
outcome of treatment of T. cruzi-infected mice (T. cruzi [3]): resulted in a cure | effect on T. cruzi in cell culture (trypanocidal / trypanostatic / inactive) (T. cruzi (Y strain)): unable to survive

Molecule: benzyloxy-carbonyl-L-phenylalanyl L-alanine fluoromethyl ketone [Z-Phe-Ala-FMK]
effect on replication and differentiation of T. cruzi in cultures (T. cruzi [4]): blocks replication and differentiation of the parasite

Second part, led by results:

cruzain inhibitory activity, in words [1]: better IC50 values than 1i | IC50 [1, 5]: 20 nM | increase in activity over 1i (cruzain) ([1]; compared to 1i): ~5 fold | IC50 (falcipain-2): 150 nM
Molecule: CCC(=NNC(N)=S)c1ccc(Cl)c(Cl)c1 [Compound 2i, 3′,4′-Dichloropropiophenone Thio Semicarbazone]

time dependence of cruzain inhibition (cruzain): time-dependent | cruzain inhibitory activity, in words [1]: better than that of 1i | IC50 [1, 5]: 80 nM | melting point: 107.4 to 109.9 °C
Molecule: CC1CN(C(N)=S)N=C1c1cccc(Br)c1 (stereo not drawn) [Compound 4b, 3-(3-Bromophenyl)-4-methyl-2-pyrazoline-1-thiocarboxamide]
effect on T. cruzi in cell culture (trypanocidal / trypanostatic / inactive) (T. cruzi (Y strain)): trypanocidal effect

cruzain inhibitory activity, in words [1]: better than that of 1i | solubility in methanol, in words ([2]; methanol): poorest solubility in methanol
Molecule: CC1CN(C(N)=S)N=C1c1ccc(Cl)c(Cl)c1 (stereo not drawn) [Compound 4f, 3-(3,4-Dichlorophenyl)-4-methyl-2-pyrazoline-1-thiocarboxamide]
effect on T. cruzi in cell culture (trypanocidal / trypanostatic / inactive) (T. cruzi (Y strain)): trypanostatic

Reference: US7495023B2, “Thio semicarbazone and semicarbozone inhibitors of cysteine proteases and methods of their use” (The Regents of the University of California, priority 2002, dated 2009)
